Results taken from the supplement of paper PMC10307832.

What was measured:
Assay in all cases: relative viability (nuclei count vs DMSO), 5 days (fraction); higher = more cells survive
Crenolanib + Foretinib = compound: CC1(COc2ccc3c(c2)ncn3-c2ccc3cccc(N4CCC(N)CC4)c3n2)COC1 [Crenolanib] + COc1cc2c(Oc3ccc(NC(=O)C4(C(=O)Nc5ccc(F)cc5)CC4)cc3F)ccnc2cc1OCCCN1CCOCC1 [Foretinib] (partner 0.25 µM)
Summary of the method: (§1)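 Medians of duplicate plates are given as relative viability. That measure is the nuclei count in treated wells divided by the count in vehicle wells. Counts were taken on 4× images of lung cancer cell lines in 1536-well plates, 5 days after pin-tool dosing the day after seeding with one drug alone or a fixed anchor-drug dose plus five library-drug doses (not always all listed) in √10 steps.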

Tivantinib + Tozasertib = compound: O=C1NC(=O)[C@@H](c2cn3c4c(cccc24)CCC3)[C@@H]1c1c[nH]c2ccccc12 [Tivantinib] + Cc1cc(Nc2cc(N3CCN(C)CC3)nc(Sc3ccc(NC(=O)C4CC4)cc3)n2)n[nH]1 [Tozasertib] (partner 0.1 µM)
Summary of the method: as §1

Tivantinib + Olaparib = compound: O=C1NC(=O)[C@@H](c2cn3c4c(cccc24)CCC3)[C@@H]1c1c[nH]c2ccccc12 [Tivantinib] + O=C(c1cc(Cc2n[nH]c(=O)c3ccccc23)ccc1F)N1CCN(C(=O)C2CC2)CC1 [Olaparib] (partner 8 µM)
Summary of the method: as §1

Crenolanib + Pictilisib = compound: CC1(COc2ccc3c(c2)ncn3-c2ccc3cccc(N4CCC(N)CC4)c3n2)COC1 [Crenolanib] + CS(=O)(=O)N1CCN(Cc2cc3nc(-c4cccc5[nH]ncc45)nc(N4CCOCC4)c3s2)CC1 [Pictilisib] (partner 1 µM)
Summary of the method: as §1

Cell Line | relative viability (Crenolanib + Foretinib; first compound 0.01 µM) | relative viability (Crenolanib + Foretinib; first compound 0.03162 µM) | relative viability (Crenolanib + Foretinib; first compound 0.1 µM) | relative viability (Crenolanib + Foretinib; first compound 0.3162 µM) | relative viability (Crenolanib + Foretinib; first compound 1 µM) | relative viability (Tivantinib + Tozasertib; first compound 0.01 µM) | relative viability (Tivantinib + Tozasertib; first compound 0.03162 µM) | relative viability (Tivantinib + Tozasertib; first compound 0.1 µM) | relative viability (Tivantinib + Tozasertib; first compound 0.3162 µM) | relative viability (Tivantinib + Olaparib; first compound 0.01 µM) | relative viability (Tivantinib + Olaparib; first compound 0.03162 µM) | relative viability (Tivantinib + Olaparib; first compound 0.1 µM) | relative viability (Tivantinib + Olaparib; first compound 0.3162 µM) | relative viability (Crenolanib + Pictilisib; first compound 0.01 µM) | relative viability (Crenolanib + Pictilisib; first compound 0.03162 µM) | relative viability (Crenolanib + Pictilisib; first compound 0.1 µM) | relative viability (Crenolanib + Pictilisib; first compound 0.3162 µM) | relative viability (Crenolanib + Pictilisib; first compound 1 µM)
NCI-H2342 | 1.01 | 1.02 | 1 | 1.2 | 0.816 | 0.556 | 0.51 | 0.51 | 0.394 | 0.513 | 0.423 | 0.392 | 0.282 |  |  |  |  | 
SK-MES-1 | 1.05 | 0.876 | 0.974 | 0.936 | 1.14 | 0.903 | 0.904 | 0.824 | 0.862 | 0.751 | 0.659 |  | 0.874 | 0.337 | 0.33 | 0.375 | 0.385 | 0.377
EPLC-272H | 0.792 | 0.588 | 0.643 | 0.64 | 0.797 | 0.206 | 0.268 | 0.283 | 0.152 | 0.97 | 0.698 | 0.657 | 0.257 |  | 0.327 | 0.318 | 0.255 | 0.338
HCC-44 |  |  |  |  |  | 0.968 | 0.712 | 0.887 | 0.275 | 0.961 | 0.963 | 1.01 | 0.941 | 0.672 | 0.649 | 0.575 | 0.571 | 0.492
201T | 1.19 | 1.1 | 1.03 | 1.12 | 1.06 | 0.985 | 0.897 | 0.919 | 0.88 | 0.837 | 0.794 | 0.817 | 0.831 | 0.724 | 0.704 | 0.695 | 0.689 | 0.634
HOP-62 | 1.19 | 1.23 | 1.09 | 1.08 | 1.15 | 0.383 | 0.352 | 0.385 | 0.377 | 0.463 | 0.451 | 0.329 | 0.477 | 0.724 | 0.946 | 0.602 | 0.768 | 0.517
NCI-H650 | 1.09 | 0.986 | 0.991 | 1.02 | 1 | 0.857 | 0.61 | 0.802 | 0.585 | 0.41 | 0.432 | 0.356 | 0.34 | 0.9 | 0.806 | 0.901 | 0.801 | 0.83
NCI-H2085 | 1.01 | 0.845 | 0.847 | 1.04 | 1.12 | 0.764 | 0.798 | 0.755 | 0.749 | 0.825 | 0.817 | 0.718 | 0.778 | 0.45 | 0.412 | 0.481 | 0.469 | 0.5
NCI-H596 | 0.774 | 0.89 | 0.752 | 0.78 | 1.03 | 1.05 | 0.819 | 0.929 | 0.799 | 0.734 | 0.661 | 0.655 | 0.6 | 0.351 | 0.398 | 0.342 | 0.353 | 0.397
SK-LU-1 | 0.802 | 0.779 | 0.538 | 0.964 | 0.905 | 0.331 | 0.357 | 0.312 | 0.323 | 0.595 | 0.464 | 0.433 | 0.512 | 0.609 | 0.494 | 0.432 | 0.62 | 0.611
A-427 | 1.05 | 0.969 | 1.14 | 1.1 | 1.09 | 0.21 | 0.2 | 0.198 | 0.169 | 0.761 | 0.794 | 0.723 | 0.685 | 0.747 | 0.674 | 0.642 | 0.582 | 0.651
NCI-H460 | 1.02 | 1.06 | 0.938 | 1 | 0.99 | 0.405 | 0.31 | 0.368 | 0.299 | 0.412 | 0.429 | 0.399 | 0.39 | 0.379 | 0.306 | 0.316 | 0.363 | 0.308
NCI-H1734 | 1.02 | 0.773 | 0.859 | 0.925 | 0.876 | 0.273 | 0.278 | 0.252 | 0.247 | 0.61 | 0.615 | 0.577 | 0.495 | 0.436 | 0.494 | 0.443 | 0.477 | 0.432
NCI-H1915 | 1.09 | 1.09 | 1.04 | 1.1 | 0.992 | 0.427 | 0.412 | 0.422 | 0.391 | 0.262 | 0.227 | 0.244 | 0.239 | 0.871 | 0.957 | 0.932 | 0.915 | 0.586
Calu-6 | 0.881 | 0.774 | 0.828 | 0.956 | 0.976 |  |  |  |  | 0.611 | 0.572 |  | 0.564 | 1.04 | 0.91 | 0.978 | 1.15 | 0.968
SW 1573 | 1.04 | 0.918 | 0.943 | 0.9 | 0.966 | 0.23 | 0.262 | 0.177 | 0.127 | 0.532 | 0.481 | 0.544 | 0.488 | 0.368 | 0.521 | 0.451 | 0.656 | 0.598
RERF-LC-KJ | 0.852 | 0.838 | 0.906 | 0.968 | 0.909 | 0.539 | 0.532 | 0.473 | 0.403 | 0.894 | 0.892 | 0.917 | 0.799 | 0.548 | 0.591 | 0.538 | 0.621 | 0.687
EMC-BAC-2 | 1.05 | 0.997 | 1.03 | 1.11 | 1.07 | 0.276 | 0.271 | 0.136 | 0.261 | 0.45 | 0.477 | 0.485 | 0.582 | 0.552 | 0.523 | 0.492 | 0.578 | 0.495
LK-2 | 1.27 | 1.66 | 1.12 | 1.35 | 1.36 | 0.177 |  | 0.199 | 0.191 | 0.903 | 0.639 | 0.73 | 0.687 | 0.586 | 0.461 | 0.662 | 0.473 | 0.615
